Test results: ChEMBL document CHEMBL1147954, “Synthesis and antiproliferative activity of some novel derivatives of diospyrin, a plant-derived naphthoquinonoid” (Bioorg Med Chem, 2007)

Assays:
A-375 = assay: Cytotoxicity against human A375 cells after 24 hrs by MTT assay; assay type: functional, cell-based; details: A-375, 24 h
HEp-2 = assay: Cytotoxicity against human Hep2 cells after 24 hrs by MTT assay; assay type: functional, cell-based; details: HEp-2, 24 h
[1] = Cytotoxicity against mouse EAC cells after 24 hrs by MTT assay; assay type: functional, cell-based; details: Ehrlich
PBMC = assay: Cytotoxicity against human PBMCs after 24 hrs by MTT assay; assay type: cell-based

Structure (SMILES): COc1cc(C)cc2c1C(=O)C=C(c1c(C)cc3c(c1OC)C(=O)C=CC3=O)C2=O
- IC50 (A-375): 0.2 µM
- IC50 (HEp-2): 0.39 µM
- IC50 [1]: 0.65 µM
- IC50 (PBMC): 53.3 µM

Structure (SMILES): CCOc1cc(C)cc2c1C(=O)C=C(c1c(C)cc3c(c1OCC)C(=O)C=CC3=O)C2=O
- IC50 (A-375): 1.07 µM
- IC50 (HEp-2): 2.39 µM
- IC50 [1]: 0.58 µM
- IC50 (PBMC): 55.5 µM

Structure (SMILES): COc1cc(C)cc2c1C(=O)C=C(c1c(C)cc3c(c1OC)C(=O)C(NCCO)=CC3=O)C2=O
- IC50 (A-375): 3.18 µM
- IC50 (HEp-2): 1.41 µM
- IC50 [1]: 1.07 µM
- IC50 (PBMC): 21.8 µM

Structure (SMILES): CCOc1cc(C)cc2c(O)c(-c3c(C)cc4c(O)ccc(O)c4c3OCC)cc(O)c12
- IC50 (A-375): 0.96 µM
- IC50 (HEp-2): 1.67 µM
- IC50 [1]: 0.39 µM
- IC50 (PBMC): 59.6 µM

Structure (SMILES): COc1cc(C)cc2c1C(=O)C=C(c1c(C)cc3c(c1OC)C(=O)C(SCCO)=CC3=O)C2=O
- IC50 (A-375): 0.19 µM
- IC50 (HEp-2): 1.73 µM
- IC50 [1]: 0.26 µM
- IC50 (PBMC): 95.5 µM

Structure (SMILES): CCOc1cc(C)cc2c1C(=O)C=C(c1c(C)cc3c(c1OCC)C(=O)C(NCCO)=CC3=O)C2=O
- IC50 (A-375): 0.07 µM
- IC50 (HEp-2): 0.85 µM
- IC50 [1]: 0.03 µM
- IC50 (PBMC): 65.4 µM

Structure (SMILES): COc1cc(C)cc2c1C(=O)C1OC1(c1c(C)cc3c(c1OC)C(=O)C1OC1C3=O)C2=O (stereo unspecified)
- IC50 (A-375): 0.03 µM
- IC50 (HEp-2): 0.21 µM
- IC50 [1]: 0.09 µM
- IC50 (PBMC): 98.2 µM

Structure (SMILES): Cc1cc(O)c2c(c1)C(=O)C(c1c(C)cc3c(c1O)C(=O)C=CC3=O)=CC2=O [DIOSPYRIN]
- IC50 (A-375): 0.82 µM
- IC50 (HEp-2): 3.58 µM
- IC50 [1]: 0.84 µM
- IC50 (PBMC): 78.3 µM

Structure (SMILES): COc1cccc2c1C(=O)c1c(O)c3c(c(O)c1C2=O)C[C@@](O)(C(=O)CO)C[C@@H]3O[C@H]1C[C@H](N)[C@H](O)[C@H](C)O1 [DOXORUBICIN]
- IC50 (A-375): 0.01 µM
- IC50 (HEp-2): 0.42 µM
- IC50 [1]: > 10 µM
- IC50 (PBMC): 15.5 µM
